Data as given in US20210062146A1, “OPTIMIZED IN VITRO CELLULAR SYSTEM FOR BBB PERMEABILITY LINKED NEUROACTIVITY SCREENING” (priority 2019, published 2021).
Read-outs that look alike come from different tables or passages of the source.

How the values were obtained:
[1] = in vitro; conditions: human
[2] = test system: NVU model (direct contact triculture with SH-SY5Y neurons); assay: Permeability across optimized NVU model (triculture with SH-SY5Y neurons in basolateral chamber)
[3] = in vitro; conditions: human; remark: listed apart in the source
[4] = test system: direct contact triculture; assay: Triculture cell viability assay (MTT); type: cell-based, human; conditions: following 3 hours of permeation; no significant change vs control (p>0.05)
[5] = test system: NVU model (direct contact triculture with SH-SY5Y neurons); conditions: for flux: human, 3 h, 50 μM
[6] = in vitro; conditions: human; remark: listed apart in the source
[7] = test system: SH-SY5Y neurons; assay: BBB permeability linked neuroactivity (Neurite Outgrowth Staining Kit); conditions: 50 μM initial apical concentration, 3 hour permeation, n=4
[8] = human
[9] = test system: direct contact triculture (astrocytes, pericytes, HBEC-5i); conditions: optimized triculture; radiolabeled marker, 0.25 μCi/mL in HBSS

Compound	viability of the triculture (MTT), percent of the control [4]	flux [5]	Papp A→B at 180 min [6]	Papp A→B at 150 min, 25 μM [1]	also measured
N[C@@H](Cc1c[nH]cn1)C(=O)O [L-histidine]	–	–	–	–	Papp A→B at 90 min, 0.25 μCi/mL [1]: 52.6 ×10⁻⁶ cm/s
CS(=O)(=O)CCNCc1ccc(-c2ccc3ncnc(Nc4ccc(OCc5cccc(F)c5)c(Cl)c4)c3c2)o1 [Lapatinib]	–	–	–	–	detection in the receiver chamber after 3 hours [2]: undetectable
Cn1c(=O)c2c(ncn2C)n(C)c1=O [caffeine]	104±25%	269±14 pg/cm^2·sec	30.7 ×10⁻⁶ cm/s	28.9 ×10⁻⁶ cm/s	viability at 3 h, 50 μM [3]: 159 ± 34%; neurite outgrowth, percent of control NVU SH-SY5Y cells with vehicle [7]: 122±26%
NC(=O)N1c2ccccc2C=Cc2ccccc21 [carbamazepine]	103±5%	310±9 pg/cm^2·sec	–	27.7 ×10⁻⁶ cm/s	viability at 3 h, 50 μM [3]: 96 ± 18%; Papp [5]: 25.37±2.80×0^−6 cm/sec
CN1CCN(C2=Nc3cc(Cl)ccc3Nc3ccccc32)CC1 [clozapine]	99±4%	372±19 pg/cm^2·sec	11.4 ×10⁻⁶ cm/s	8.15 ×10⁻⁶ cm/s	viability at 3 h, 50 μM [3]: 143 ± 20%; change in permeation rate across the NVU model in comparison to the optimized triculture alone [5]: significant increase; neurite outgrowth, percent of control NVU SH-SY5Y cells with vehicle [7]: 111±12%
COc1cc2c(c(OC)c1OC)-c1ccc(OC)c(=O)cc1[C@@H](NC(C)=O)CC2 [colchicine]	–	–	–	–	Papp A→B at 150 min, 25 μM [8]: 18.7 ×10⁻⁶ cm/s
OC[C@@H](O)[C@@H](O)[C@H](O)[C@H](O)CO [mannitol]	–	–	–	–	Papp A→B at 90 min, 0.25 μCi/mL [1]: 19.9 ×10⁻⁶ cm/s
COc1ccc2[nH]cc(CCNC(C)=O)c2c1 [melatonin]	–	–	18.3 ×10⁻⁶ cm/s	–	–
COc1cc2nc(N3CCN(C(=O)c4ccco4)CC3)nc(N)c2cc1OC [prazosin]	82±6%	166±14 pg/cm^2·sec	3.9 ×10⁻⁶ cm/s	6.16 ×10⁻⁶ cm/s	change in permeation rate across the NVU model in comparison to the optimized triculture alone [5]: significant decreases
PEG-4000	–	–	–	–	Papp [9]: 0.78×10^−5±0.00 cm/sec
inulin	–	–	–	–	Papp [9]: 1.55×10^−5±0.01 cm/sec
